From US4293489A, “Derivatives of A-30912A nucleus” (Eli Lilly and Company, priority 1980, dated 1981)
Starred links: 1 amine or outer side, 2 acyl side, 3 side chain; linkers in the order of their positions; H or OH if unused. Positions of bridges follow the written chain, without caps; N, C: chain ends. Non-standard residues stand in square brackets, D forms with d. Residues, ends and D or L forms follow the SMILES beside them. *: point of attachment. Orn(4R-OH,5R-OH) = O=C([C@H](C[C@@H](O)[C@@H](O)N[*:3])N[*:1])[*:2]; hTyr(3S-OH,4S-OH) = N[C@H](C(=O)O)[C@H](O)[C@@H](O)c1ccc(O)cc1; Benzoyl(4-OC10H21) = CCCCCCCCCCOc1ccc(C(=O)*)cc1; Pro(3S-OH,4S-Me) = C[C@H]1CN[C@H](C(=O)O)[C@H]1O; Benzoyl(4-octyloxy) = CCCCCCCCOc1ccc(C(=O)*)cc1; X4 = CCCCCCCCCCS(=O)(=O)c1ccc(C(=O)*)cc1; X23 = CCCCCCCCS(=O)(=O)c1ccc(C(=O)*)cc1; X22 = CCCCCCCCCCCCOc1ccc(CCC(=O)*)cc1; X25 = CCCCCCCCCCOc1ccc(OCC(=O)*)cc1; X1 = CCCCCCCCCCCCSc1ccc(C(=O)*)cc1; X21 = CCCCCCCCOc1ccc(CCC(=O)*)cc1; Hyp = O=C(O)[C@@H]1C[C@@H](O)CN1; X29 = CCCCCCCOc1ccc(CCC(=O)*)cc1; X6 = CCCCCCCCCCSc1ccc(C(=O)*)cc1; X30 = CCCCCCCCOc1ccc(C(=O)*)cn1; X26 = CCCCCOc1ccc(CCC(=O)*)cc1; X7 = CCCCCCCCSc1ccc(C(=O)*)cc1

What was measured:
[1] = system: Trychophyton mentagrophyes #6; experiment: Agar plate disc diffusion test, MIC per disc; type: cell-based, Trichophyton mentagrophytes; conditions: 0.1M sodium borate, pH 7.5, 24 hours, 30° C., * measurable zones with regrowth of organism around disc
Method: (§1) Tables 10 and 11 give the results of the testing in vitro of the compounds of Examples 3 and 4 by agar-plate disc-diffusion methods. In Table 10 activity is measured by the size (diameter in mm) of the observed zone of inhibition of the microorganism produced by the test compound. In Table 11, activity is measured by the minimal inhibitory concentration (MIC) of the substance (μg/disc) required to inhibit growth of the test organism. Table 12 gives the results of the testing in vitro of the p-(n-octyloxy)benzoyl derivative of A30912A nucleus [Formula III, R^1 is p-(n-octyloxy)benzoyl] against five strains of Candida albicans by the agar dilution method. In Table 12 activity is measured by the minimal inhibitory concentration (MIC) of the substance (μg/ml) required to inhibit the test organism.
(§2) ^(a) Compounds were suspended in 0.1M sodium borate solution, pH 7.5.
(§3) The compounds were tested at 20 μg/disc at top level and at twofold
(§4) dilutions until end points were reached. Incubation: 24 hours; 30°
*Measurable zones of inhibition with regrowth of organism around disc.

Candida albicans A-26 [2] = experiment: Agar plate disc diffusion test, MIC per disc; type: cell-based; conditions: 0.1M sodium borate, pH 7.5, 24 hours, 30° C.
Method: as §1, §2, §3, §4

Candida albicans A-26 [3] = experiment: Therapeutic activity against Candida albicans A-26 infection in mice, ED50; type: in vivo; conditions: Candida albicans, A26, sc, doses 0, 4 and 24 hours post infection, increase in survival time vs control, Reed-Muench, read-out: ED50
Method: The results of in vivo tests to evaluate the effectiveness of the compounds of Examples 3 and 4 against an infection caused by Candida albicans A-26 in mice are given in Table 13, where activity is measured by the ED50 value (the dose in mg/kg. required to cure 50% of the test animals). In a separate test, the results of which are also summarized in Table 13, activity is indicated by the lowest dose at which a significant anti-fungal effect is observed. In this test, groups of male albino mice (specific pathogen free), weighing 18 to 20 grams, are infected intravenously with Candida albicans A-26. The animals are X-irradiated 24 hours prior to infection at about 50 roentgens per minute for 8 minutes (400 total dose) to reduce immune responses to the infecting organism. At 0, 4, and 24 hours post infection each group of mice is given graded doses subcutaneously of the test compound as a suspension in 33% polyethylene glycol (PEG)-water. The day of death for each animal is recorded.
*Dosage Schedules: A. = 40, 20, 15 and 10 mg/kg; Dosages given 0, 4, and
24 hours post injection as suspension of test compound in 30% PEGH2
O. Number of mice receiving test compounds at each dosage level: 6 mice
per group. Number of mice in control (untreated) group: 10 mice per group
**As measured by increase in survival time of treated animals versus
control, calculated by method of Reed v Mueuch, American J. Hygiene, 27,

| Structure (SMILES) | MIC [1] [μg/disc] | MIC (Candida albicans A-26 [2]) [μg/disc] | ED50 (Candida albicans A-26 [3]) [mg/kg] |
| --- | --- | --- | --- |
| CCCCCCCCCCOc1ccc(OCC(=O)N[C@H]2C[C@@H](O)[C@@H](O)NC(=O)[C@@H]3[C@@H](O)[C@@H](C)CN3C(=O)[C@H]([C@@H](C)O)NC(=O)[C@H]([C@H](O)[C@@H](O)c3ccc(O)cc3)NC(=O)[C@@H]3C[C@@H](O)CN3C(=O)[C@H]([C@@H](C)O)NC2=O)cc1 (X25-[Orn(4R-OH,5R-OH)]T[Hyp][hTyr(3S-OH,4S-OH)]T[Pro(3S-OH,4S-Me)]; lactam 1-C) | < 0.156 | 0.156 | – |
| CCCCCOc1ccc(CCC(=O)N[C@H]2C[C@@H](O)[C@@H](O)NC(=O)[C@@H]3[C@@H](O)[C@@H](C)CN3C(=O)[C@H]([C@@H](C)O)NC(=O)[C@H]([C@H](O)[C@@H](O)c3ccc(O)cc3)NC(=O)[C@@H]3C[C@@H](O)CN3C(=O)[C@H]([C@@H](C)O)NC2=O)cc1 (X26-[Orn(4R-OH,5R-OH)]T[Hyp][hTyr(3S-OH,4S-OH)]T[Pro(3S-OH,4S-Me)]; lactam 1-C) | 0.156 | 5 | – |
| CCCCCCCOc1ccc(CCC(=O)N[C@H]2C[C@@H](O)[C@@H](O)NC(=O)[C@@H]3[C@@H](O)[C@@H](C)CN3C(=O)[C@H]([C@@H](C)O)NC(=O)[C@H]([C@H](O)[C@@H](O)c3ccc(O)cc3)NC(=O)[C@@H]3C[C@@H](O)CN3C(=O)[C@H]([C@@H](C)O)NC2=O)cc1 (X29-[Orn(4R-OH,5R-OH)]T[Hyp][hTyr(3S-OH,4S-OH)]T[Pro(3S-OH,4S-Me)]; lactam 1-C) | 0.156 | 0.625 | – |
| CCCCCCCCOc1ccc(C(=O)N[C@H]2C[C@@H](O)[C@@H](O)NC(=O)[C@@H]3[C@@H](O)[C@@H](C)CN3C(=O)[C@H]([C@@H](C)O)NC(=O)[C@H]([C@H](O)[C@@H](O)c3ccc(O)cc3)NC(=O)[C@@H]3C[C@@H](O)CN3C(=O)[C@H]([C@@H](C)O)NC2=O)cn1 (X30-[Orn(4R-OH,5R-OH)]T[Hyp][hTyr(3S-OH,4S-OH)]T[Pro(3S-OH,4S-Me)]; lactam 1-C) | 2.5 | 80 | – |
| CCCCCCCCOc1ccc(C(=O)N[C@H]2C[C@@H](O)[C@@H](O)NC(=O)[C@@H]3[C@@H](O)[C@@H](C)CN3C(=O)[C@H]([C@@H](C)O)NC(=O)[C@H]([C@H](O)[C@@H](O)c3ccc(O)cc3)NC(=O)[C@@H]3C[C@@H](O)CN3C(=O)[C@H]([C@@H](C)O)NC2=O)cc1 [drawing 115] ({Benzoyl(4-octyloxy)}-[Orn(4R-OH,5R-OH)]T[Hyp][hTyr(3S-OH,4S-OH)]T[Pro(3S-OH,4S-Me)]; lactam 1-C) | < 0.039 | 0.156 | – |
| CCCCCCCCCCOc1ccc(C(=O)N[C@H]2C[C@@H](O)[C@@H](O)NC(=O)[C@@H]3[C@@H](O)[C@@H](C)CN3C(=O)[C@H]([C@@H](C)O)NC(=O)[C@H]([C@H](O)[C@@H](O)c3ccc(O)cc3)NC(=O)[C@@H]3C[C@@H](O)CN3C(=O)[C@H]([C@@H](C)O)NC2=O)cc1 [drawing 116] ({Benzoyl(4-OC10H21)}-[Orn(4R-OH,5R-OH)]T[Hyp][hTyr(3S-OH,4S-OH)]T[Pro(3S-OH,4S-Me)]; lactam 1-C) | < 0.078 | 0.156 | – |
| CCCCCCCCSc1ccc(C(=O)N[C@H]2C[C@@H](O)[C@@H](O)NC(=O)[C@@H]3[C@@H](O)[C@@H](C)CN3C(=O)[C@H]([C@@H](C)O)NC(=O)[C@H]([C@H](O)[C@@H](O)c3ccc(O)cc3)NC(=O)[C@@H]3C[C@@H](O)CN3C(=O)[C@H]([C@@H](C)O)NC2=O)cc1 [drawing 119] (X7-[Orn(4R-OH,5R-OH)]T[Hyp][hTyr(3S-OH,4S-OH)]T[Pro(3S-OH,4S-Me)]; lactam 1-C) | < 0.039 | 0.312 | – |
| CCCCCCCCCCSc1ccc(C(=O)N[C@H]2C[C@@H](O)[C@@H](O)NC(=O)[C@@H]3[C@@H](O)[C@@H](C)CN3C(=O)[C@H]([C@@H](C)O)NC(=O)[C@H]([C@H](O)[C@@H](O)c3ccc(O)cc3)NC(=O)[C@@H]3C[C@@H](O)CN3C(=O)[C@H]([C@@H](C)O)NC2=O)cc1 [drawing 120] (X6-[Orn(4R-OH,5R-OH)]T[Hyp][hTyr(3S-OH,4S-OH)]T[Pro(3S-OH,4S-Me)]; lactam 1-C) | 0.039 | 0.156 | – |
| CCCCCCCCCCCCSc1ccc(C(=O)N[C@H]2C[C@@H](O)[C@@H](O)NC(=O)[C@@H]3[C@@H](O)[C@@H](C)CN3C(=O)[C@H]([C@@H](C)O)NC(=O)[C@H]([C@H](O)[C@@H](O)c3ccc(O)cc3)NC(=O)[C@@H]3C[C@@H](O)CN3C(=O)[C@H]([C@@H](C)O)NC2=O)cc1 [drawing 121] (X1-[Orn(4R-OH,5R-OH)]T[Hyp][hTyr(3S-OH,4S-OH)]T[Pro(3S-OH,4S-Me)]; lactam 1-C) | < 0.039 | 2.5 | – |
| CCCCCCCCS(=O)(=O)c1ccc(C(=O)N[C@H]2C[C@@H](O)[C@@H](O)NC(=O)[C@@H]3[C@@H](O)[C@@H](C)CN3C(=O)[C@H]([C@@H](C)O)NC(=O)[C@H]([C@H](O)[C@@H](O)c3ccc(O)cc3)NC(=O)[C@@H]3C[C@@H](O)CN3C(=O)[C@H]([C@@H](C)O)NC2=O)cc1 [drawing 123] (X23-[Orn(4R-OH,5R-OH)]T[Hyp][hTyr(3S-OH,4S-OH)]T[Pro(3S-OH,4S-Me)]; lactam 1-C) | 0.312 | 20 | – |
| CCCCCCCCCCS(=O)(=O)c1ccc(C(=O)N[C@H]2C[C@@H](O)[C@@H](O)NC(=O)[C@@H]3[C@@H](O)[C@@H](C)CN3C(=O)[C@H]([C@@H](C)O)NC(=O)[C@H]([C@H](O)[C@@H](O)c3ccc(O)cc3)NC(=O)[C@@H]3C[C@@H](O)CN3C(=O)[C@H]([C@@H](C)O)NC2=O)cc1 [drawing 124] (X4-[Orn(4R-OH,5R-OH)]T[Hyp][hTyr(3S-OH,4S-OH)]T[Pro(3S-OH,4S-Me)]; lactam 1-C) | 0.156 | 2.5 | – |
| CCCCCCCCS(=O)(=O)c1ccc(C(=O)N[C@H]2C[C@@H](O)[C@@H](O)NC(=O)[C@@H]3[C@@H](O)[C@@H](C)CN3C(=O)[C@H]([C@@H](C)O)NC(=O)[C@H]([C@H](O)[C@@H](O)c3ccc(O)cc3)NC(=O)[C@@H]3C[C@@H](O)CN3C(=O)[C@H]([C@@H](C)O)NC2=O)cc1 [drawing 159] (X23-[Orn(4R-OH,5R-OH)]T[Hyp][hTyr(3S-OH,4S-OH)]T[Pro(3S-OH,4S-Me)]; lactam 1-C) | – | – | 57 |
| CCCCCCCCCCS(=O)(=O)c1ccc(C(=O)N[C@H]2C[C@@H](O)[C@@H](O)NC(=O)[C@@H]3[C@@H](O)[C@@H](C)CN3C(=O)[C@H]([C@@H](C)O)NC(=O)[C@H]([C@H](O)[C@@H](O)c3ccc(O)cc3)NC(=O)[C@@H]3C[C@@H](O)CN3C(=O)[C@H]([C@@H](C)O)NC2=O)cc1 [drawing 160] (X4-[Orn(4R-OH,5R-OH)]T[Hyp][hTyr(3S-OH,4S-OH)]T[Pro(3S-OH,4S-Me)]; lactam 1-C) | – | – | 57 |
| CCCCCCCCOc1ccc(CCC(=O)N[C@H]2C[C@@H](O)[C@@H](O)NC(=O)[C@@H]3[C@@H](O)[C@@H](C)CN3C(=O)[C@H]([C@@H](C)O)NC(=O)[C@H]([C@H](O)[C@@H](O)c3ccc(O)cc3)NC(=O)[C@@H]3C[C@@H](O)CN3C(=O)[C@H]([C@@H](C)O)NC2=O)cc1 [drawing 172] (X21-[Orn(4R-OH,5R-OH)]T[Hyp][hTyr(3S-OH,4S-OH)]T[Pro(3S-OH,4S-Me)]; lactam 1-C) | – | – | 4.5 |
| CCCCCCCCCCCCOc1ccc(CCC(=O)N[C@H]2C[C@@H](O)[C@@H](O)NC(=O)[C@@H]3[C@@H](O)[C@@H](C)CN3C(=O)[C@H]([C@@H](C)O)NC(=O)[C@H]([C@H](O)[C@@H](O)c3ccc(O)cc3)NC(=O)[C@@H]3C[C@@H](O)CN3C(=O)[C@H]([C@@H](C)O)NC2=O)cc1 [drawing 173] (X22-[Orn(4R-OH,5R-OH)]T[Hyp][hTyr(3S-OH,4S-OH)]T[Pro(3S-OH,4S-Me)]; lactam 1-C) | – | – | 4.5 |
